Where a name gives a salt, the structure may show the parent alone.
molecular target: T1, human PAR4 (Homo sapiens, UniProt Q96RI0); test: PAR4 FLIPR assay: antagonism of agonist-peptide-induced calcium mobilization in PAR4-expressing HEK293 cells; format: cell-based; conditions: H-Ala-Phe(4-F)-[…]NH2-induced intracellular calcium mobilization, 11-point curves
T1 construct: expressed in transfected cells; host or cells: HEK293 PAR4 Clone 1.2A (BMS Arctic ID 383940)
T1 sequence (Q96RI0 18-385): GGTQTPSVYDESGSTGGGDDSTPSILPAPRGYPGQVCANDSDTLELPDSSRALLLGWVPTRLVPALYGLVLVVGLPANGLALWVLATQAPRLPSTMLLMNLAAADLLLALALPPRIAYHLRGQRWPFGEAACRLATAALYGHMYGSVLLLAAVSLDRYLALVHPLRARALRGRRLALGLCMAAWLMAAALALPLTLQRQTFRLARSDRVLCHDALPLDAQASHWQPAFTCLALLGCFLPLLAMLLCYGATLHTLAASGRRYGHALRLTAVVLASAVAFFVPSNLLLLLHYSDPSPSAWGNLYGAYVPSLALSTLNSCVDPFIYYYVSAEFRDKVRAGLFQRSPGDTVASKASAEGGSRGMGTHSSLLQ

IC50	Compound
5.8 nM	COc1cnc2c(-c3nc4c(Cl)c(F)c(OC[C@@H](C)OC(=O)Nc5nnc(C)s5)cc4s3)cc(C)cc2n1 [Example 370, (R)-1-((4-chloro-5-fluoro-2-(2-methoxy-7-methylquinoxalin-5-yl)benzo[d]thiazol-6-yl)oxy)propan-2-yl (5-methyl-1,3,4-thiadiazol-2-yl)carbamate]
1.1 nM	CCOc1cnc2c(-c3nc4cc(F)c(O[C@@H](C)[C@@H](C)OC(=O)Nc5cnc(OCCO)nc5)cc4s3)cc(Cl)cc2c1 [Example 513, (2R,3S)-3-((2-(6-chloro-3-ethoxyquinolin-8-yl)-5-fluorobenzo[d]thiazol-6-yl)oxy)butan-2-yl (2-(2-hydroxyethoxy)pyrimidin-5-yl)carbamate]
3 nM	COc1cc(C(O)C(C)(C)C)c2nc(-c3cc(Cl)cc4nc(OC)cnc34)sc2c1 (stereo not drawn) [Example 636, 1-(2-(7-chloro-2-methoxyquinoxalin-5-yl)-6-methoxybenzo[d]thiazol-4-yl)-2,2-dimethylpropan-1-ol]
93 nM	COCc1cnc2c(-c3nc4cc(OC)c(OC)cc4s3)cc(C)cc2n1 [Example 311, 5,6-dimethoxy-2-(2-(methoxymethyl)-7-methylquinoxalin-5-yl)benzo[d]thiazole]
2.5 nM	CNC(=O)c1ccc(NC(=O)O[C@H](C)[C@H](C)Oc2cc3sc(-c4cc(Cl)cc5nc(OC)cnc45)nc3cc2F)cn1 [Example 832, (2R,3S)-3-((2-(7-chloro-2-methoxyquinoxalin-5-yl)-5-fluorobenzo[d]thiazol-6-yl)oxy)butan-2-yl (6-(methylcarbamoyl)pyridin-3-yl)carbamate]
3.3 nM	COc1cnc2c(-c3nc4cc(F)c(O[C@@H](C)[C@@H](C)OC(=O)Nc5ccc(OCCO)nc5)nc4s3)cc(Cl)cc2c1 [Example 779, (2R,3S)-3-((2-(6-chloro-3-methoxyquinolin-8-yl)-6-fluorothiazolo[5,4-b]pyridin-5-yl)oxy) butan-2-yl (6-(2-hydroxyethoxy)pyridin-3-yl)carbamate]
0.9 nM	COC(=O)c1ccc(NC(=O)O[C@H](C)[C@H](C)Oc2nc3sc(-c4cc(C)cc5nc(OC)cnc45)nc3cc2F)cn1 [Example 715, methyl 5-(((((2R,3S)-3-((6-fluoro-2-(2-methoxy-7-methylquinoxalin-5-yl)thiazolo[5,4-b]pyridin-5-yl)oxy)butan-2-yl)oxy)carbonyl)amino)picolinate]
0.9 nM	COCc1cnc2c(-c3nc4cc(Cl)c(OC)cc4s3)cc(C)cc2n1 [Example 268, 5-chloro-6-methoxy-2-(2-(methoxymethyl)-7-methylquinoxalin-5-yl)benzo[d]thiazole]
1.2 nM	COc1cnc2c(-c3cc4cc(OCCOC(=O)Nc5ccnc(C)c5)c(F)cc4o3)cc(CO)cc2n1 [Example 126, 2-((6-fluoro-2-(7-(hydroxymethyl)-2-methoxyquinoxalin-5-yl)benzofuran-5-yl)oxy)ethyl (2-methylpyridin-4-yl)carbamate]
0.3 nM	COc1cnc2c(-c3nc4cc(F)c(OC[C@@H](C)OC(=O)Nc5ccc(C(=O)NC[C@@H](C)O)nc5)cc4s3)cc(C)cc2n1 [Example 449, (R)-1-((5-fluoro-2-(2-methoxy-7-methylquinoxalin-5-yl)benzo[d]thiazol-6-yl)oxy)propan-2-yl (6-(((R)-2-hydroxypropyl)carbamoyl)pyridin-3-yl)carbamate]
2.9 nM	COCc1cnc2c(-c3nc4c(OC)c(F)c(Cl)cc4s3)cc(C)cc2n1 [Example 313, 6-chloro-5-fluoro-4-methoxy-2-(2-(methoxymethyl)-7-methylquinoxalin-5-yl) benzo[d]thiazole]
3.9 nM	COc1cnc2c(-c3nc4c(s3)C(OC)CCC4)cc(C)cc2n1 (stereo not drawn) [Example 139, 7-methoxy-2-(2-methoxy-7-methylquinoxalin-5-yl)-4,5,6,7-tetrahydrobenzo[d]thiazole]
19 nM	Cc1cc(-c2nc3cc(F)ccc3s2)c2ncc(OC(F)F)nc2c1 [Example 60, 2-(2-(difluoromethoxy)-7-methylquinoxalin-5-yl)-5-fluorobenzo[d]thiazole]
3.7 nM	COc1cnc2c(-c3nc4c(Cl)c(F)c(OC[C@@H](C)OC(=O)Nc5cnc(F)c(C)c5)cc4s3)cc(C)cc2n1 [Example 402, (R)-1-((4-chloro-5-fluoro-2-(2-methoxy-7-methylquinoxalin-5-yl)benzo[d]thiazol-6-yl)oxy)propan-2-yl (6-fluoro-5-methylpyridin-3-yl)carbamate]
1600 nM	Cc1cc(-c2nc3c(C)cc(OCCNS(=O)(=O)c4ccc(F)cc4)cc3s2)c2ncc(COC(F)F)nc2c1 [Example 114, N-(2-(2-(2-((difluoromethoxy)methyl)-7-methylquinoxalin-5-yl)-4-methylbenzo[d]thiazol-6-yloxy)ethyl)-4-fluorobenzenesulfonamide]
1.6 nM	COCc1cnc2c(-c3nc4c(C)cc(OCCNS(=O)(=O)c5ccc(F)cc5)cc4s3)cc(Cl)cc2n1 [Example 200, N-(2-((2-(7-chloro-2-(methoxymethyl)quinoxalin-5-yl)-4-methylbenzo[d]thiazol-6-yl)oxy)ethyl)-4-fluorobenzenesulfonamide]
4.7 nM	COc1cnc2c(-c3nc4cc(F)c(O[C@@H](C)[C@@H](C)OC(=O)Nc5cnc(C(=O)NCC(C)(C)O)nc5)nc4s3)cc(C)cc2n1 [Example 751, (2R,3S)-3-((6-fluoro-2-(2-methoxy-7-methylquinoxalin-5-yl)thiazolo[5,4-b]pyridin-5-yl)oxy)butan-2-yl (2-((2-hydroxy-2-methylpropyl)carbamoyl)pyrimidin-5-yl)carbamate]
1.2 nM	COCc1cnc2c(-c3nc4c(C)cc(OC)nc4s3)cc(C)cc2n1 [Example 181, 5-methoxy-2-(2-(methoxymethyl)-7-methylquinoxalin-5-yl)-7-methylthiazolo[5,4-b] pyridine]
1.6 nM	COCc1cnc2c(-c3nc4ccc(OCCNS(=O)(=O)c5ccccc5)cc4s3)cc(C)cc2n1 [Example 106, N-(2-(2-(2-(methoxymethyl)-7-methylquinoxalin-5-yl)benzo[d]thiazol-6-yloxy)ethyl)benzenesulfonamide]
4.3 nM	COc1cnc2c(-c3nc4c(F)c(F)c(OC)cc4s3)cc(Cl)cc2n1 [Example 214, 2-(7-chloro-2-methoxyquinoxalin-5-yl)-4,5-difluoro-6-methoxybenzo[d]thiazole]
1700 nM	COCc1cnc2c(-c3nc4c(C)cc(OC)cc4s3)cc(C)cc2c1OC [Example 190, 6-methoxy-2-(4-methoxy-3-(methoxymethyl)-6-methylquinolin-8-yl)-4-methylbenzo[d]thiazole]
160 nM	COc1cnc2c(-c3nc4c(Cl)c(F)c(OC)cc4s3)c(C)c(C)cc2n1 [Example 216, 4-chloro-5-fluoro-6-methoxy-2-(2-methoxy-6,7-dimethylquinoxalin-5-yl)benzo[d] thiazole]
0.7 nM	CNC(=O)c1cc(NC(=O)O[C@H](C)[C@H](C)Oc2cc3sc(-c4cc(C)cc5nc(OC)cnc45)nc3cc2F)ccn1 [Example 466, (2R,3S)-3-((5-fluoro-2-(2-methoxy-7-methylquinoxalin-5-yl)benzo[d]thiazol-6-yl)oxy)butan-2-yl (2-(methylcarbamoyl)pyridin-4-yl)carbamate]
1.7 nM	COCc1cnc2c(-c3nc4c(C)cc(OCCNS(=O)(=O)c5cccc(F)c5)cc4s3)cc(C)cc2n1 [Example 97, 3-fluoro N-(2-(2-(2-(methoxymethyl)-7-methylquinoxalin-5-yl)-4-methylbenzo[d]thiazol-6-yloxy)ethyl)benzenesulfonamide]
1.7 nM	COc1cc(C(O)C2(c3ccccc3)CCC2)c2nc(-c3cc(C)cc4nc(OC)cnc34)sc2c1 (stereo not drawn) [Example 665, (6-methoxy-2-(2-methoxy-7-methylquinoxalin-5-yl)benzo[d]thiazol-4-yl)(1-phenylcyclobutyl)methanol]
0.9 nM	COc1cnc2c(-c3nc4c(Cl)c(F)c(OC[C@@H](C)OC(=O)Nc5ccc6[nH]c(=O)oc6c5)cc4s3)cc(C)cc2n1 [Example 373, (R)-1-((4-chloro-5-fluoro-2-(2-methoxy-7-methylquinoxalin-5-yl)benzo[d]thiazol-6-yl)oxy)propan-2-yl (2-oxo-2,3-dihydrobenzo[d]oxazol-6-yl)carbamate]
0.7 nM	CCOc1cnc2c(-c3nc4cc(F)c(O[C@@H](C)[C@@H](C)OC(=O)Nc5ccc(C(=O)NC[C@H](C)O)nc5)cc4s3)cc(C)cc2n1 [Example 531, (2R,3S)-3-((2-(2-ethoxy-7-methylquinoxalin-5-yl)-5-fluorobenzo[d]thiazol-6-yl)oxy)butan-2-yl (6-(((S)-2-hydroxypropyl)carbamoyl)pyridin-3-yl)carbamate, TFA]
160 nM	COc1cnc2c(-c3nc4c(Cl)c(F)c(OCCOC(=O)Nc5ccc6[nH]ccc6c5)cc4s3)cc(C)cc2n1 [Example 360, 2-((4-chloro-5-fluoro-2-(2-methoxy-7-methylquinoxalin-5-yl)benzo[d]thiazol-6-yl)oxy)ethyl 1H-indol-5-ylcarbamate]
7 nM	COc1cc(C(O)C2CCOCC2)c2nc(-c3cc(C)cc4nc(OC)cnc34)sc2c1 (stereo not drawn) [Example 663, (6-methoxy-2-(2-methoxy-7-methylquinoxalin-5-yl)benzo[d]thiazol-4-yl)(tetrahydro-2H-pyran-4-yl)methanol]
21 nM	COc1cnc2c(-c3nc4cc(F)c(OC[C@@H](C)OC(=O)Nc5ccnc(C(=O)N(C)C)c5)cc4s3)cc(C)cc2n1 [Example 447, (R)-1-((5-fluoro-2-(2-methoxy-7-methylquinoxalin-5-yl)benzo[d]thiazol-6-yl)oxy)propan-2-yl (2-(dimethylcarbamoyl)pyridin-4-yl)carbamate]
